“Also recorded” adds a separate entry of the source. Like-named read-outs stand apart in the source and are kept apart here.
Experiments:
[1] = target: T1, IMP-1 (Serratia marcescens, UniProt P52699); experiment: Inhibition of IPM hydrolysis by purified IMP-1, Ki by Lineweaver-Burk plots; format: biochemical
T1 construct: made in house
Procedure: (§1) MBL (10 nM) was mixed with the inhibitors and incubated for 5 min at 30°C. IPM was added to reach a concentration of 150 μM, and the velocity of IPM hydrolysis was monitored at 298 nm. The assay was performed at 30°C using 10 mM HEPES (pH 7.5) buffer containing 200 mM NaCl and 50 μg/ml bovine serum albumin (BSA) for IMP-1, NDM-1, VIM-2, and SMB-1. For SFH-1 and L1, another 10 mM HEPES (pH 7.5) buffer containing 200 mM NaCl, 20 μM ZnSO4, and 50 μg/ml BSA was used.
Initial velocities (vo) were measured after varying the concentrations of IPM and inhibitors, and inverse velocities (1/vo) were plotted against inverse IPM concentrations […]. Lineweaver-Burk plots were constructed to obtain the inhibition constant (Ki) with the competitive inhibition model using the SigmaPlot 13 suite (Hulinks).

[2] = target: T2, L1 (Stenotrophomonas maltophilia, UniProt P52700); experiment: In vitro inhibition assay, IPM hydrolysis by L1; format: biochemical; settings: even in the presence of 100 μM SFC
T2 construct: made in house
T2 sequence (P52700 34-290): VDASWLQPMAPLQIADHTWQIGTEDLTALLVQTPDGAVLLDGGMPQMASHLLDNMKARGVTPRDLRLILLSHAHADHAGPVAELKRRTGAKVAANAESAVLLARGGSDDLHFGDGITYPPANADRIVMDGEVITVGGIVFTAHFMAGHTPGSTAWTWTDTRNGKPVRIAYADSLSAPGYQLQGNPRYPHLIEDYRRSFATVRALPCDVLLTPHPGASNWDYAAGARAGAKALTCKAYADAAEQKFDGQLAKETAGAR
Procedure: as §1

[3] = system: SMB-1; experiment: In vitro inhibition assay, IPM hydrolysis by SMB-1; format: biochemical; settings: even in the presence of 100 μM SFC
Procedure: as §1

[4] = target: T3, CMY-2 (Klebsiella pneumoniae, UniProt Q48434); experiment: Serine β-lactamase inhibition, nitrocefin hydrolysis by CMY-2; format: biochemical; settings: nitrocefin 100 μM
T3 construct: made in house; host or cells: E. coli BL21(DE3)
T3 sequence (Q48434 21-381, species assumed): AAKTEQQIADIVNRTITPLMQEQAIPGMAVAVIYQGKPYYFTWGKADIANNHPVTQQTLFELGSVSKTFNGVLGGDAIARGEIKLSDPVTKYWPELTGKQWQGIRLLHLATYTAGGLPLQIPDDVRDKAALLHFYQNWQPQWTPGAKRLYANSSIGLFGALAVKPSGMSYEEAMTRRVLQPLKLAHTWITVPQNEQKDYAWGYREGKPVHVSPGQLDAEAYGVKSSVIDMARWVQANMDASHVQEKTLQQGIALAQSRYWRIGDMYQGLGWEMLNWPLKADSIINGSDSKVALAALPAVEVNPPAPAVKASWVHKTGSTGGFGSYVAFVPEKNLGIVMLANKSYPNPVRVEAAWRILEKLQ
Procedure: (§2) The serine–β-lactamases (1 nM) TLA-3, CMY-2, and OXA-48 were mixed with SFC in 100 mM phosphate buffer (pH 7.0) and incubated for 5 min at 30°C. Nitrocefin was added to reach a concentration of 100 μM, and the velocity of nitrocefin hydrolysis was monitored at 482 nm. Avibactam (MedKoo Bioscience, Morrisville, NC) was used as an inhibitor for serine–β-lactamases. The inhibitory effect of SFC against ACE was evaluated using ACE Kit-WST (Dojindo Laboratories, Kumamoto, Japan). The residual ACE activity was calculated as described in the manufacturer’s protocol as follows: [1 − (Acontrol − Asample)/(Acontrol − Abackground)] × 100. EDTA solution (Nippon Gene, Tokyo, Japan) was used as an ACE inhibitor.

[5] = target: T4, OXA-48 (Klebsiella pneumoniae, UniProt Q6XEC0); experiment: Serine β-lactamase inhibition, nitrocefin hydrolysis by OXA-48; format: biochemical; settings: nitrocefin 100 μM
T4 construct: made in house; host or cells: E. coli BL21(DE3)pLysS
T4 sequence (Q6XEC0 23-265, looked up, species assumed): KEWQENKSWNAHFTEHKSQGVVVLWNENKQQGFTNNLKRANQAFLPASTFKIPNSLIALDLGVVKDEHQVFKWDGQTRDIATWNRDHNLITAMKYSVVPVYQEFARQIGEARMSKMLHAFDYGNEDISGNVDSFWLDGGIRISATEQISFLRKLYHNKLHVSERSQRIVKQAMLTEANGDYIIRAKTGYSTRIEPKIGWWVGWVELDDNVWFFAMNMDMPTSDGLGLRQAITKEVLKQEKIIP
Procedure: as §2

[6] = target: T5, angiotensin-converting enzyme (ACE) (Homo sapiens, UniProt P12821); experiment: ACE inhibition (ACE Kit-WST); format: biochemical; settings: human metalloenzyme
T5 construct: purchased Dojindo Laboratories ACE Kit-WST
T5 sequence (P12821 30-1306): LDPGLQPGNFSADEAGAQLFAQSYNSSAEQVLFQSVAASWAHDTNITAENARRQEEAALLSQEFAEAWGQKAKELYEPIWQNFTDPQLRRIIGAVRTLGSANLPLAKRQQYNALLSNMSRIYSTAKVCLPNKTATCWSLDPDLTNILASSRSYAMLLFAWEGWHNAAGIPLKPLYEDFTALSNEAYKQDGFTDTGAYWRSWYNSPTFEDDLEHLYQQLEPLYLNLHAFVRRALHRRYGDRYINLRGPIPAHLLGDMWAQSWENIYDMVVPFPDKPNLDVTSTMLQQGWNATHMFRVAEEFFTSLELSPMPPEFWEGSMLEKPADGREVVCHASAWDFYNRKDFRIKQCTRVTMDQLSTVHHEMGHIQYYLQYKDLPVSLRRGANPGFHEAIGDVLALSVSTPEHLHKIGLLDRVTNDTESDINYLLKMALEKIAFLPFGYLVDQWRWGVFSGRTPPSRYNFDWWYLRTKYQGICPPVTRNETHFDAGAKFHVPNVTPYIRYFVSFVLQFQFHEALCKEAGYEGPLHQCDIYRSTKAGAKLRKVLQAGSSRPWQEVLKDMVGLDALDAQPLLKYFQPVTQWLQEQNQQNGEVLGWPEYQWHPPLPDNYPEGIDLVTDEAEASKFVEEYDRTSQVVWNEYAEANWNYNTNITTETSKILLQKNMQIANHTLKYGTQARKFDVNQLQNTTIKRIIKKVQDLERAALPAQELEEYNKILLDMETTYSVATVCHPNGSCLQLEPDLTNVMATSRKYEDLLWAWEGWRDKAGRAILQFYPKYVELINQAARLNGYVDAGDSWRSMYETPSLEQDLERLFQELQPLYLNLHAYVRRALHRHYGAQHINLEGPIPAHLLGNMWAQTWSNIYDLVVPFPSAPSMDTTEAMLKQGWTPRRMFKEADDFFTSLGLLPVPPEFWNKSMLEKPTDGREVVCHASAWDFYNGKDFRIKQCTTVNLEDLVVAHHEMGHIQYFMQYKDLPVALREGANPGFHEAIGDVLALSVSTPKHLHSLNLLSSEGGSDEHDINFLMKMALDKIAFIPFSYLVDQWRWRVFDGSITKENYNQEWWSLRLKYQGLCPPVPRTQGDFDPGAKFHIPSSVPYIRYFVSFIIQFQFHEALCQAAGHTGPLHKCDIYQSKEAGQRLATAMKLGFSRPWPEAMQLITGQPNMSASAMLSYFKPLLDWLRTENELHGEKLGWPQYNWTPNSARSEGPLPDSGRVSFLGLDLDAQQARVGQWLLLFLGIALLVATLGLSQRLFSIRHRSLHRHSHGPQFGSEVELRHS
Procedure: as §2

[7] = system: E. coli DH5α/pBC-NDM-1; experiment: Susceptibility and checkerboard testing, NDM-1-producing E. coli; format: cell-based, Escherichia coli; settings: for MIC: Escherichia coli
Procedure: (§3) MICs were determined via the microdilution method according to the CLSI guidelines ([38]). In brief, 5 × 10^4 bacterial cells were inoculated in 100 μl of cation-adjusted Mueller-Hinton broth (Becton, Dickinson and Company, Franklin Lakes, NJ) containing the β-lactams and appropriately diluted inhibitors. The final concentration of DMSO was maintained at 2% in the assays. The tested plates were then incubated at 35°C for 16 to 20 h. The MIC value was determined as the lowest concentration of tested β-lactams where no bacterial growth was visibly observed. The optical density at 600 nm (OD600) value was measured using a plate reader for drawing the heat maps. The FIC index value was calculated using the following equation: FIC index=MIC of β-lactam with inhibitor/MIC of β-lactam alone+MIC of inhibitor with β-lactam/MIC of inhibitor alone
Unless noted otherwise, the FIC index was defined as the lowest value among all obtained values. The synergistic effect was defined as the effect observed when the FIC index value was ≤0.5.

[8] = system: E. coli BL21(DE3)/pET-SPM-1; experiment: Susceptibility testing, SPM-1-producing E. coli; format: cell-based; settings: Escherichia coli
Procedure: as §3

[9] = system: E. coli BL21(DE3)/pET-DIM-1; experiment: Susceptibility testing, DIM-1-producing E. coli; format: cell-based; settings: Escherichia coli
Procedure: as §3

[10] = system: E. coli BL21(DE3)/pET-KHM-1; experiment: Susceptibility testing, KHM-1-producing E. coli; format: cell-based; settings: Escherichia coli
Procedure: as §3

[11] = system: IMP-1-producing E. coli NUBL-24; experiment: Time-kill assay; format: cell-based, Escherichia coli; settings: 10 μg/ml SFC added to 1 μg/ml MPM, 6 h
Procedure: The initial density of E. coli NUBL-24 (blaIMP-1) (MPM MIC, 8 μg/ml) was adjusted to approximately 5 × 10^6 CFU/ml. Either MPM (1 μg/ml) alone or SFC (10 μg/ml) alone or a combination of the two was added to the bacterial solution, and then incubation was performed at 37°C. LB broth containing only bacteria was used as a control. At 0, 2, 4, 6, and 24 h after adding the agents, an aliquot of bacterial culture was removed, diluted, and spotted on LB agar plates to count the viable bacterial cells. The detection limit was set at 200 CFU/ml.

[12] = system: HeLa cells; experiment: Toxicity assay in HeLa cells (CellTiter 96 AQueous); format: cell-based; settings: 24 h exposure, cell proliferation assay
Procedure: HeLa cells were seeded at 5,000 cells per well in 96-well plates and cultured in Dulbecco’s modified Eagle’s medium (DMEM) (Wako Pure Chemical Industries, Osaka, Japan). After incubation for 24 h at 37°C with 5% CO2, staurosporine (Sigma-Aldrich, St. Louis, MO) and SHCs were added to each well (final DMSO concentration was 1%), after which the plates were incubated for another 24 h. Twenty microliters of tetrazolium solution, obtained from a CellTiter 96 AQueous one-solution cell proliferation assay kit (Promega, Madison, WI), was added into each well. The plate was incubated for 3 h under the same conditions mentioned above, and the absorbance at 490 nm was measured for the determination of cell proliferation.

[13] = system: Salmonella enterica serovar Typhimurium TA98 and TA100, E. coli WP2uvrA; experiment: Ames test (reverse mutation assay)
Procedure: Bacterial strains of Salmonella enterica serovar Typhimurium TA98 and TA100 as well as E. coli WP2uvrA were analyzed using the reverse mutation assay, which was performed by UBE Scientific Analysis Laboratory (Tokyo, Japan).

[14] = Human liver microsomal stability test; format: in vitro ADME; settings: 100 nM compound, 0.1 mg protein/ml, 35 min, 37°C
Procedure: Human liver microsomal stability tests were performed by Sumika Chemical Analysis Service (Osaka, Japan). Compounds (100 nM) were incubated with human liver microsomes (0.1 mg protein/ml) for 35 min at 37°C and subjected to liquid chromatography-tandem mass spectrometry (LC-MS/MS) for quantification of the loss of the tested compounds.

[15] = read-out: MIC of MPM + inhibitor (8 μg/ml)
[16] = read-out: MIC of MPM + inhibitor (32 μg/ml)

T1 sequence (P52699 19-246 limits assumed): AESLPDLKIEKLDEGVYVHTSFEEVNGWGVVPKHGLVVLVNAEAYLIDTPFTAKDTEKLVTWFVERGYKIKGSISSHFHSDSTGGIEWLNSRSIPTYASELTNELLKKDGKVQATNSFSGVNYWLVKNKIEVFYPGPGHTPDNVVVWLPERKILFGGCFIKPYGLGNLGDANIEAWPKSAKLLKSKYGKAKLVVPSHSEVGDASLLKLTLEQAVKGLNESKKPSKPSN

## Cc1oc(C)c(S(N)(=O)=O)c1C(=O)O [SFC, 2,5-dimethyl-4-sulfamoylfuran-3-carboxylic acid]
[1]
  Ki: 220 nM
[2]
  Inhibition of IPM hydrolyzing activity of L1: did not inhibit
[3]
  Inhibition of IPM hydrolyzing activity of SMB-1: did not inhibit
[4]
  Inhibitory effect against CMY-2 (class C): nonexistent or insufficient
[5]
  Inhibitory effect against OXA-48 (class D): nonexistent or insufficient
[6]
  Inhibitory effect on ACE: no inhibitory effect
[7]; E. coli DH5α/pBC-NDM-1
  MIC meropenem + 2 μg/mL compound: 16 µg/mL
[7]; E. coli DH5α/pBC-NDM-1, 2 μg/ml compound
  Reduction in MPM MIC: 4 fold
[7]; [15]
  MIC: 2 µg/mL
[7]; [16]
  MIC: ≤ 0.25 µg/mL
[7]; checkerboard with MPM, E. coli DH5α/pBC-NDM-1, lowest value
  FIC index: 0.09
[8]; [15]
  MIC: 0.063 µg/mL
[8]; [16]
  MIC: 0.063 µg/mL
[9]; [15]
  MIC: 2 µg/mL
[9]; [16]
  MIC: 2 µg/mL
[10]; [15]
  MIC: 4 µg/mL
[10]; [16]
  MIC: 2 µg/mL
[11]
  Reduction of bacterial population: more than 1,000 fold
[12]
  Toxicity in HeLa cells: very low toxicity; also recorded: low toxicity
[13]
  Ames test, mutagenicity: negative
[14]
  Stability in human liver microsomes: did not lead to structural changes; also recorded: high stability

From PMC7078479, “Sulfamoyl Heteroarylcarboxylic Acids as Promising Metallo-β-Lactamase Inhibitors for Controlling Bacterial Carbapenem Resistance” (mBio, 2020)
